Experiment: not given
Conditions: IAM column; ref [21]; cited from earlier work

In the case of `Cc1ccc(N2CCn3c2nnc(C(=O)NN)c3=O)cc1` [Compound 52], the “log kw, IAM” value is listed as 0.16.

Same assay, conditions: IAM column; ref [22]; cited from earlier work

Compared with `Cc1ccc(N2CCn3c2nnc(C(F)(F)F)c3=O)cc1` [Compound 17], `O=c1c(C(F)(F)F)nnc2n1CCN2c1ccc(Cl)cc1` [Compound 21] is higher in “log kw, IAM” value: 1.25 for the first, 1.58 for the second.

Compared with `O=c1c(C(F)(F)F)nnc2n1CCN2c1cccc(Cl)c1` [Compound 20], `O=c1c(C(F)(F)F)nnc2n1CCN2c1ccc(Cl)c(Cl)c1` [Compound 22] is higher in “log kw, IAM” value: 1.66 for the first, 2.29 for the second.

Compared with `CC(C)c1nnc2n(c1=O)CCN2c1ccccc1` [Compound 29], `CC(C)c1nnc2n(c1=O)CCN2c1cccc(Cl)c1` [Compound 32] is higher in “log kw, IAM” value: 0.76 for the first, 1.49 for the second.

First: Cc1ccc(N2CCn3c2nnc(C(C)C)c3=O)cc1 [Compound 30]
Second: CCOC(=O)c1nnc2n(c1=O)CCN2c1ccc(C)cc1 [Compound 36]
The “log kw, IAM” value of the first is lower: 1.05 for the first, 1.93 for the second.

Compared with `CCOC(=O)c1nnc2n(c1=O)CCN2c1ccccc1` [Compound 35], `CCOC(=O)c1nnc2n(c1=O)CCN2c1ccc(Cl)cc1` [Compound 38] is higher in “log kw, IAM” value: 0.48 for the first, 1.12 for the second.

Same assay, conditions: IAM column; ref [23]; cited from earlier work

First: CCc1nnc2n(c1=O)CCN2c1ccccc1 [Compound 23]
Second: COC(=O)Cc1nnc2n(c1=O)CCN2c1ccccc1 [Compound 40]
The “log kw, IAM” value of the first is lower: 0.55 for the first, 0.81 for the second.

First: CCc1nnc2n(c1=O)CCN2c1ccc(C)cc1 [Compound 24]
Second: CCc1nnc2n(c1=O)CCN2c1ccc(Cl)cc1 [Compound 27]
The “log kw, IAM” value of the first is lower: 1.00 for the first, 1.24 for the second.

`CCc1nnc2n(c1=O)CCN2c1ccccc1Cl` [Compound 25] and `CCc1nnc2n(c1=O)CCN2c1cccc(Cl)c1` [Compound 26] are within 0.2 log units of each other in “log kw, IAM” value: 0.80 for the first, 0.84 for the second.

Compared with `CCOc1ccc(N2CCn3c2nnc(CC(=O)OC)c3=O)cc1` [Compound 43], `COC(=O)Cc1nnc2n(c1=O)CCN2c1ccc(Cl)cc1` [Compound 44] is higher in “log kw, IAM” value: 1.42 for the first, 1.82 for the second.

Compared with `CCOC(=O)Cc1nnc2n(c1=O)CCN2c1ccc(C)cc1` [Compound 46], `CCOC(=O)Cc1nnc2n(c1=O)CCN2c1ccc(Cl)cc1` [Compound 49] is higher in “log kw, IAM” value: 1.70 for the first, 2.11 for the second.

Compared with `CCOC(=O)Cc1nnc2n(c1=O)CCN2c1ccccc1OC` [Compound 47], `COc1ccccc1N1CCn2c1nnc(-c1ccco1)c2=O` [Compound 65] is higher in “log kw, IAM” value: 0.91 for the first, 1.11 for the second.

Going from `O=c1c(-c2ccco2)nnc2n1CCN2c1ccccc1` [Compound 61] to `Cc1ccccc1N1CCn2c1nnc(-c1ccco1)c2=O` [Compound 62], the “log kw, IAM” value falls from 1.29 to 0.96.

Going from `Cc1ccc(N2CCn3c2nnc(-c2ccco2)c3=O)cc1` [Compound 63] to `O=c1c(-c2ccco2)nnc2n1CCN2c1ccc(Cl)cc1` [Compound 69], the “log kw, IAM” value rises from 1.69 to 2.02.

`Cc1cccc(N2CCn3c2nnc(-c2ccco2)c3=O)c1C` [Compound 64] and `O=c1c(-c2ccco2)nnc2n1CCN2c1ccccc1Cl` [Compound 67] are within 0.2 log units of each other in “log kw, IAM” value: 1.42 for the first, 1.27 for the second.

Compared with `COc1ccc(N2CCn3c2nnc(-c2ccco2)c3=O)cc1` [Compound 66], `O=c1c(-c2ccco2)nnc2n1CCN2c1cccc(Cl)c1` [Compound 68] is higher in “log kw, IAM” value: 1.19 for the first, 2.08 for the second.

First: O=c1c(-c2ccco2)nnc2n1CCN2c1ccc(Cl)c(Cl)c1 [Compound 70]
Second: O=c1c(-c2ccco2)nnc2n1CCN2c1c(Cl)cccc1Cl [Compound 71]
The “log kw, IAM” value of the first is higher: 3.23 for the first, 1.70 for the second.

Going from `O=c1c(-c2ccccc2)nnc2n1CCN2c1ccccc1` [Compound 81] to `Cc1ccccc1N1CCn2c1nnc(-c1ccccc1)c2=O` [Compound 82], the “log kw, IAM” value falls from 1.91 to 1.53.

`Cc1ccc(N2CCn3c2nnc(-c2ccccc2)c3=O)cc1` [Compound 84] and `CCOc1ccc(N2CCn3c2nnc(-c2ccccc2)c3=O)cc1` [Compound 87] are within 0.2 log units of each other in “log kw, IAM” value: 2.22 for the first, 2.14 for the second.

Compared with `COc1ccccc1N1CCn2c1nnc(-c1ccccc1)c2=O` [Compound 85], `Cc1cccc(N2CCn3c2nnc(-c2ccccc2)c3=O)c1C` [Compound 88] is higher in “log kw, IAM” value: 1.47 for the first, 1.85 for the second.

`O=c1c(-c2ccccc2)nnc2n1CCN2c1cccc(Cl)c1` [Compound 90] and `O=c1c(Cc2cccc(Cl)c2)nnc2n1CCN2c1ccccc1` [Compound 104] are within 0.2 log units of each other in “log kw, IAM” value: 2.64 for the first, 2.48 for the second.

Going from `O=c1c(Cc2ccccc2)nnc2n1CCN2c1ccccc1` [Compound 102] to `O=c1c(CCc2ccccc2)nnc2n1CCN2c1ccccc1` [Compound 122], the “log kw, IAM” value falls from 3.26 to 2.07.

`O=c1c(Cc2ccc(Cl)cc2)nnc2n1CCN2c1ccccc1` [Compound 105] and `O=c1c(Cc2ccccc2)nnc2n1CCN2c1ccc(Cl)cc1` [Compound 118] are within 0.2 log units of each other in “log kw, IAM” value: 2.39 for the first, 2.52 for the second.

Compared with `Cc1ccc(N2CCn3c2nnc(Cc2ccccc2)c3=O)cc1` [Compound 106], `Cc1ccc(N2CCn3c2nnc(CCc2ccccc2)c3=O)cc1` [Compound 123] is higher in “log kw, IAM” value: 2.15 for the first, 2.41 for the second.

Compared with `Cc1ccc(Cc2nnc3n(c2=O)CCN3c2ccc(C)cc2)cc1` [Compound 107], `Cc1ccc(N2CCn3c2nnc(Cc2ccc(Cl)cc2)c3=O)cc1` [Compound 111] is higher in “log kw, IAM” value: 2.51 for the first, 2.81 for the second.

`Cc1ccc(N2CCn3c2nnc(Cc2cccc(C)c2)c3=O)cc1` [Compound 108] and `Cc1ccc(N2CCn3c2nnc(Cc2cccc(Cl)c2)c3=O)cc1` [Compound 110] are within 0.2 log units of each other in “log kw, IAM” value: 2.59 for the first, 2.78 for the second.

First: CCOc1ccc(N2CCn3c2nnc(Cc2ccc(C)cc2)c3=O)cc1 [Compound 113]
Second: CCOc1ccc(N2CCn3c2nnc(Cc2cccc(Cl)c2)c3=O)cc1 [Compound 115]
The “log kw, IAM” value of the first is lower: 2.43 for the first, 2.73 for the second.

First: Cc1ccccc1N1CCn2c1nnc(Cc1ccccc1Cl)c2=O [Compound 117]
Second: O=c1c(Cc2ccccc2Cl)nnc2n1CCN2c1ccc(Cl)cc1 [Compound 119]
The “log kw, IAM” value of the first is lower: 2.02 for the first, 3.22 for the second.

`O=c1c(Cc2cccc(Cl)c2)nnc2n1CCN2c1ccc(Cl)cc1` [Compound 120] and `O=c1c(Cc2ccc(Cl)cc2)nnc2n1CCN2c1ccc(Cl)cc1` [Compound 121] are within 0.2 log units of each other in “log kw, IAM” value: 3.15 for the first, 3.17 for the second.

Compared with `O=c1c(CCc2ccccc2)nnc2n1CCN2c1ccccc1Cl` [Compound 124], `O=c1c(CCc2ccccc2)nnc2n1CCN2c1ccc(Cl)cc1` [Compound 125] is higher in “log kw, IAM” value: 1.81 for the first, 2.68 for the second.

For `O=c1c(CCc2ccccc2)nnc2n1CCN2c1ccc(Cl)c(Cl)c1` [Compound 126], the “log kw, IAM” value is listed as 3.40.

Experiment: Biomimetic IAM chromatography (log kw, IAM)
Assay type: physicochemical
Conditions: IAM.PC.DD2 column, buffered acetonitrile, pH 7.4, 25 °C, extrapolated to buffer
Method: High performance liquid chromatography (HPLC) measurements were performed on a Shimadzu Vp liquid chromatographic system (Shimadzu, Izabelin, Poland). This instrument was equipped with LC 10AT pump, SPD 10A ultraviolet-visible detector, SCL 10A system controller, CTO-10 AS chromatographic oven, and a Rheodyne injector valve with a 20 μL loop. As the stationary phase Regis IAM.PC.DD2 column, 100 × 4.6 mm i.d., 10 μm (Morton Grove, IL, USA) was applied.
Buffered acetonitrile mixtures were used as effluents. Acetonitrile concentration, expressed as a volume fraction, was varied within a range from 0.2 to 0.5, with a constant step of 0.1. The buffer was prepared from 0.01 mol L^−1 solutions of Na2HPO4 and citric acid, and a pH value of 7.4 was fixed before mixing with an organic modifier. The flow rate was 1.3 mL min^−1. Each compound sample was dissolved in acetonitrile to obtain a concentration of 0.005 mg mL^−1, and each solute peak was detected under ultraviolet light at a wavelength of λmax = 254 nm. Each measurement was performed at a constant temperature (25 °C) at least three times. The dead time values were measured from sodium chloride peaks.
From among 126 heterocyclic compounds evaluated in this work (Table 1), 89 structures have been investigated previously on the IAM column: these are molecules from groups III, IV, V, VI, VII, VIII, IX, XI, XIII, and XV [21, 22, 23]. The remaining ones, i.e., 37 compounds from groups I, II, X, XII and XIV, were tested in this study for the first time using the biomimetic IAM chromatographic technique. To calculate the log kw values (i.e., the logarithms of retention parameter in the buffer as the mobile phase), the retention parameters, logs k (k = (tr − t0)/t0; where tr is the solute retention time, and t0 is a dead time), that were measured for all tested compounds, were used according to Soczewiński-Wachtmeister’s equation (Equation (5)): (5) log k=logtr−t0/t0=log kw−sφ where φ denotes the volume fraction of acetonitrile as organic modifier in the mobile phase, and kw means the retention parameter corresponding to buffer as the mobile phase. The log kw values were evaluated as linear regression coefficients (Table 2).

First: c1ccc(N2CCn3cnnc32)cc1 [Compound 1]
Second: Clc1cccc(N2CCn3cnnc32)c1 [Compound 4]
The “log kw, IAM” value of the first is lower: 0.10 for the first, 0.64 for the second.

Compared with `Cc1ccc(N2CCn3cnnc32)cc1` [Compound 2], `COc1ccc(N2CCn3cnnc32)cc1` [Compound 3] is lower in “log kw, IAM” value: 0.41 for the first, 0.10 for the second.

Going from `Clc1ccc(N2CCn3cnnc32)cc1Cl` [Compound 5] to `Clc1ccc(N2CCn3c(COc4cc(Cl)c(Cl)cc4Cl)nnc32)cc1` [Compound 14], the “log kw, IAM” value rises from 1.18 to 2.55.

Going from `c1ccc(OCc2nnc3n2CCN3c2ccccc2)cc1` [Compound 6] to `Clc1ccc(OCc2nnc3n2CCN3c2ccc(Cl)cc2)cc1` [Compound 10], the “log kw, IAM” value rises from 0.11 to 1.86.

Compared with `COc1ccc(N2CCn3c(COc4ccc(Cl)cc4)nnc32)cc1` [Compound 7], `Cc1cc(Cl)ccc1OCc1nnc2n1CCN2c1ccc(Cl)cc1` [Compound 11] is higher in “log kw, IAM” value: 0.06 for the first, 2.14 for the second.

Compared with `Clc1ccc(N2CCn3c(COc4ccc(Cl)cc4Cl)nnc32)cc1` [Compound 12], `NNC(=O)Cc1nnc2n(c1=O)CCN2c1ccccc1` [Compound 56] is lower in “log kw, IAM” value: 2.25 for the first, 0.40 for the second.

— publication PMC11154582, “Modeling the Blood-Brain Barrier Permeability of Potential Heterocyclic Drugs via Biomimetic IAM Chromatography Technique Combined with QSAR Methodology” (Molecules, 2024)
